Measurements: patent US4073942A, “Halo-substituted hydroxybenzyl-amines as secretolytic agents” (Boehringer Ingelheim GmbH, priority 1972, dated 1978)
Counter-ions that a name gives are not always drawn.

Legend:
Type in all cases: in vivo
[1] = system: coughs induced by citric acid spray in awake white rats; assay: Antitussive activity: change in number of citric acid-induced coughs after oral application; settings: 50 mgm/kg oral, compared to control group
[2] = system: stomach ulcers in female rats; assay: Anti-ulcerogenic activity: acetic acid-induced stomach ulcers; settings: three weeks
Description: The standard pharmacological test method of […] et al, Jap. J. Pharmac. 19, 418 (1969), was used. The abdominal cavity of female rats having a body weight of 220 to 350 gm under ether anesthesia was opened, and the stomach was exposed. […] The controls received only pulverized rat food. After three weeks, the animals were sacrificed, their stomachs were excised, and the size of the ulcer was determined by measuring its length and width.

[3] = Acute toxicity after oral application, 72 hours observation; settings: mouse, in vivo, po
Description: (§1) The acute toxicity was determined on groups of 5 white mice after oral application of a dose ranging between 500 mgm/kg and 5000 mgm/kg per animal (time of observation: 72 hours).

white mice = assay: as above; settings: white mice, 72 hours
Description: as §1

[4] = system: secretion in anesthetized rabbits or guinea pigs; assay: Expectorant effect: secretolytic activity, increase of secretion within 2 hours after oral application; settings: 8 mgm/kg oral
Description: The increase of secretion within 2 hours was calculated before and after application of the substance see Perry and Boyd in Pharmakol. exp. Therap. 73, 65 (1941)!.

cats = assay: Circulatory effect in cats under chloralose-urethane narcosis after intravenous application; settings: 3 animals per dose
Description: The circulatory effect in cats was determined under chloralose-urethane narcosis after intravenous application of the test compound (3 animals per dose).

[5] = white mice, 72 hours observation

Compound	Average change in the number of coughs, in per cent, 30 minutes after oral application of 50 mgm/kg [1] [%]	% change in ulcer size versus controls ([2]; 50 mgm/kg p.o. in daily food) [%]	% change in ulcer size versus controls ([2]; 100 mgm/kg p.o. in daily food) [%]	LD50 at 72 h [3, 5] [mg/kg]	animals dead (white mice; 1000 mgm/kg p.o.)	change in vivo at 8 mg/kg [4] [%]	Circulatory effect in cats (cats; 8 mgm/kg)	Circulatory effect in cats (cats; 4 mgm/kg)	LD50 at 72 h [3] [mg/kg]	animals dead (white mice; 5000 mgm/kg p.o.)	animals dead (white mice; 500 mgm/kg p.o.)
Cl.Oc1c(Br)cc(CN[C@H]2CCC[C@@H](O)C2)cc1Br (relative stereo) [C, N-(cis-3'-hydroxy-cyclohexyl)-3,5-dibromo-4-hydroxy-benzylamine hydrochloride]	-35	-11	-29	> 1000	0 of 5						
CCN(Cc1cc(Br)c(O)c(Br)c1)C1CCCCC1 [B, N-ethyl-N-cyclohexyl-3,5-dibromo-4-hydroxy-benzylamine]	-34			> 1000	0 of 5	87	no change				
CCN(Cc1cc(Br)cc(Br)c1O)C1CCCCC1 [Compound A, N-ethyl-N-cyclohexyl-(3,5-dibromo-2-hydroxy)-benzylamine hydrochloride]	-38	-39	-54		0 of 5	81		no change	> 1000		
CCC(C)(C)NCc1cc(Br)cc(Br)c1O.Cl [Compound I, N-tert.pentyl-3,5-dibromo-2-hydroxy-benzylamine hydrochloride]				> 5000		80				0 of 5	
Oc1c(Br)cccc1CN[C@H]1CC[C@H](O)CC1 [D, N-(trans-4'-hydroxy-cyclohexyl)-3-bromo-2-hydroxy-benzylamine]				> 500		66					0 of 5
CN(Cc1cc(Cl)c(O)c(Br)c1)C1CCCCC1.Cl [E, n-methyl-N-cyclohexyl-3-bromo-5-chloro-4-hydroxy-benzylamine hydrochloride]				> 500		65					0 of 5
Oc1c(Br)cc(Br)cc1CN[C@H]1CC[C@H](O)CC1 [F, N-(trans-4'-hydroxy-cyclohexyl)-3,5-dibromo-2-hydroxy-benzylamine]		-59	-78	> 5000		70				0 of 5	
CC(CO)(CO)NCc1cc(Br)cc(Br)c1O [G, N-(dihydroxy-tert.butyl)-3,5-dibromo-2-hydroxy-benzylamine hydrochloride]				> 5000		88				0 of 5	
CC(CO)(CO)NCc1cc(Cl)c(O)c(Cl)c1 [H, N-(dihydroxy-tert.butyl)-3,5-dichloro-4-hydroxy-benzylamine hydrochloride]						88					
CN(Cc1cc(Br)cc(Br)c1O)C1CCCCC1 [J, N-methyl-N-cyclohexyl-(3,5-dibromo-2-hydroxy)-benzylamine hydrochloride]		-73	-82	> 5000						1 of 5	
